We go through one substance from patent US11752169B2, “Treatment of pain with polysulfated polysaccharides” (PARADIGM BIOPHARMACEUTICALS LTD., priority 2018, dated 2023).

One data set concerns proNGF. Nature of the data set: proNGF ELISA of culture supernatants of osteocyte-like cultures treated with rhTNF and PPS. The class given is cell-based, human. An excerpt:
In order to maximise the clinical relevance of the findings from this study, the effects of PPS were to be tested on osteocyte-like cultures derived by differentiation in vitro for a period of 28 days from cells isolated from the subchondral bone of the proximal tibia of three patients with advanced knee OA who underwent total knee arthroplasty (TKA) surgery (KOA: Group 1). As a comparator group, cells isolated from the proximal femur of three patients who underwent total hip arthroplasty (THA) for neck of femur fracture (NOF: Group 2), were similarly differentiated and tested. […]
Cryopreserved cells from each donor (all at passage 0 or 1) were thawed and cultured for 10d in T75 cm^2 tissue culture flasks. Once confluent, cells were removed by collagenase/dispase digestion, washed by centrifugation, counted and adjusted to 5×10^5 cells/mL. […]
To examine further the effects of PPS on NGF expression, osteocyte-like cultures derived from three KOA and three NOF donor osteoblasts were treated after 3 days pre-treatment with differing concentrations of PPS, with rhTNFα in the absence or presence of the pre-treatment concentration of PPS. […] Therefore, in this study proNGF levels were also measured in the treated supernatants, as described in Materials and Methods.

Another data set concerns IL-6 mRNA. The experiment in a line: real-time RT-PCR for IL-6 mRNA in KOA osteocyte-like cultures. The class given is cell-based, human. The conditions noted are these: PPS 1 μg/mL + rhTNFα 1 ng/mL, 48 h (FIG. 17). On the procedure:
Cryopreserved cells from each donor (all at passage 0 or 1) were thawed and cultured for 10d in T75 cm^2 tissue culture flasks. Once confluent, cells were removed by collagenase/dispase digestion, washed by centrifugation, counted and adjusted to 5×10^5 cells/mL. Cells were then seeded into either 12-well tissue culture trays or into 8-well chamber slides, at 1×10^5 and 2×10^4 cells/well, respectively. After 24 h, media were replaced with osteogenic differentiation medium, consisting of αMEM, 5% v/v foetal calf serum (FCS), 1.8 mM potassium dihydrogen phosphate (KH2PO4), 100 μM Ascorbate-2-phosphate (As2P), 10 mM HEPES, 10^−8 M Dexamethasone and 0.2 mM L-Glutamine. During the differentiation process, samples were collected at days 3, 14 and 28 in Trizol reagent for total RNA preparation and gene expression analysis (see below). […]
Following three days of pre-treatment of osteocyte-like cultures with PPS and a further 48 h treatment period, total RNA was isolated for the purposes of analysing gene expression using real-time RT-PCR. While the quality of the RNA isolated from all cultures appeared to be high, as adjudged by Nanodrop micro-spectrophotometry showing the ratio of absorbance at 260 nm/280 nm generally being between 1.9 and 2.0, there was a consistent inability to generate complementary DNA (cDNA) from any samples exposed to 5 or 50 μg/mL PPS, except in one or two samples. […]

For data set [1] the following is noted: volunteers injected subcutaneously with PPS; cited from earlier work.

Sodium Pentosan Polysulfate [PPS]: the “effect of rhTNF on proNGF secretion” value with proNGF (KOA and NOF cultures, rhTNFα 1 ng/mL 48 h after 3 days PPS pre-treatment, all PPS concentrations tested) is “strongly reversed”. In the data set with proNGF (all donors' cells (KOA and NOF), all PPS concentrations tested (1, 5, 50 μg/mL)), the “basal proNGF secretion” value is recorded as “strongly suppressed”. Also, the “effect of rhTNFα on IL-6 mRNA expression” value in the data set with IL-6 mRNA is given as “inhibited”. In addition, the “plasma concentrations of PPS” value in data set [1] was 1000 to 3000 ng/mL.
